Values after ≈ are worked out from the molar mass of the structure shown. Where two headings read alike, the source gives them in different places.
Key:
[1] = test system: Enterobacter aerogenes ATCC 29751; assay: Antibacterial activity, MIC; type: cell-based; details: Klebsiella aerogenes, ATCC29751; ATCC 29751; agar two-fold dilution, 37° C., 20 hours; read-out: MIC
Experimental: (§1) Also, the in vitro antibacterial activity was determined by the by a two-fold dilution method as described below:
(§2) That is, the two-fold serial dilutions of the compound were made dispersed in Muller-Hinton agar medium. 2 μl of standard test strain which had the 10^7 CFU per ml was inoculated on the medium, and was incubated at 37° C. for 20 hours.

[2] = test system: Salmonella typhimurium ATCC 14028; assay: Antibacterial activity, MIC; type: cell-based; details: Salmonella enterica; ATCC 14028; agar two-fold dilution, 37° C., 20 hours; read-out: MIC
Experimental: as §1, §2

[3] = test system: Streptococcus faecalis ATCC 29212; assay: Antibacterial activity, MIC; type: cell-based; details: Enterococcus faecalis, ATCC29212; ATCC 29212; agar two-fold dilution, 37° C., 20 hours; read-out: MIC
Experimental: as §1, §2

[4] = test system: Morganella morganii ATCC 8076h; assay: Antibacterial activity, MIC; type: cell-based; details: ATCC8076H, agar two-fold dilution, 37° C., 20 hours
Experimental: as §1, §2

[5] = test system: Pseudomonas aeruginosa ATCC 10145; assay: Antibacterial activity, MIC; type: cell-based; details: ATCC10145, ATCC 10145, agar two-fold dilution, 37° C., 20 hours, read-out: MIC
Experimental: as §1, §2

[6] = test system: Staphylococcus aureus ATCC 10537; assay: Antibacterial activity, MIC; type: cell-based; details: ATCC10537, ATCC 10537, agar two-fold dilution, 37° C., 20 hours, read-out: MIC
Experimental: as §1, §2

[7] = test system: Proteus vulgaris ATCC 6059; assay: Antibacterial activity, MIC; type: cell-based; details: ATCC6059, ATCC 6059, agar two-fold dilution, 37° C., 20 hours, read-out: MIC
Experimental: as §1, §2

[8] = test system: Bacillus cereus ATCC 11778; assay: Antibacterial activity, MIC; type: cell-based; details: ATCC11778, ATCC 11778, agar two-fold dilution, 37° C., 20 hours, read-out: MIC
Experimental: as §1, §2

[9] = test system: Escherichia coli ATCC 25922; assay: Antibacterial activity, MIC; type: cell-based; details: ATCC25922, agar two-fold dilution, 37° C., 20 hours
Experimental: as §1, §2

[10] = test system: Bacillus megaterium ATCC 9885; assay: Antibacterial activity, MIC; type: cell-based; details: Priestia megaterium, ATCC9885; ATCC 9885; agar two-fold dilution, 37° C., 20 hours; read-out: MIC
Experimental: as §1, §2

[11] = test system: Citrobacter freundii ATCC 8090; assay: Antibacterial activity, MIC; type: cell-based; details: ATCC8090, ATCC 8090, agar two-fold dilution, 37° C., 20 hours, read-out: MIC
Experimental: as §1, §2

[12] = test system: Pseudomonas aeruginosa ATCC 25619; assay: Antibacterial activity, MIC; type: cell-based; details: ATCC25619, ATCC 25619, agar two-fold dilution, 37° C., 20 hours, read-out: MIC
Experimental: as §1, §2

[13] = test system: Enterobacter cloacae ATCC 27508; assay: Antibacterial activity, MIC; type: cell-based; details: ATCC27508, ATCC 27508, agar two-fold dilution, 37° C., 20 hours, read-out: MIC
Experimental: as §1, §2

[14] = test system: Providencia rettgeri ATCC 9250; assay: Antibacterial activity, MIC; type: cell-based; details: ATCC9250, agar two-fold dilution, 37° C., 20 hours
Experimental: as §1, §2

[15] = test system: Staphylococcus epidermidis ATCC 12228; assay: Antibacterial activity, MIC; type: cell-based; details: ATCC12228, ATCC 12228, agar two-fold dilution, 37° C., 20 hours, read-out: MIC
Experimental: as §1, §2

[16] = test system: Escherichia coli ATCC 10536; assay: Antibacterial activity, MIC; type: cell-based; details: ATCC10536, agar two-fold dilution, 37° C., 20 hours
Experimental: as §1, §2

[17] = test system: Micrococcus luteus ATCC 9341; assay: Antibacterial activity, MIC; type: cell-based; details: ATCC9341, ATCC 9341, agar two-fold dilution, 37° C., 20 hours, read-out: MIC
Experimental: as §1, §2

[18] = test system: Pseudomonas aeruginosa ATCC 27853; assay: Antibacterial activity, MIC; type: cell-based; details: ATCC27853, ATCC 27853, agar two-fold dilution, 37° C., 20 hours, read-out: MIC
Experimental: as §1, §2

[19] = test system: Proteus mirabilis ATCC 25933; assay: Antibacterial activity, MIC; type: cell-based; details: ATCC25933, ATCC 25933, agar two-fold dilution, 37° C., 20 hours, read-out: MIC
Experimental: as §1, §2

[20] = test system: Acinetobacter calcoaceticus ATCC 15473; assay: Antibacterial activity, MIC; type: cell-based; details: ATCC15473, ATCC 15473, agar two-fold dilution, 37° C., 20 hours, read-out: MIC
Experimental: as §1, §2

[21] = test system: Klebsiella pneumoniae ATCC 10031; assay: Antibacterial activity, MIC; type: cell-based; details: ATCC10031, ATCC 10031, agar two-fold dilution, 37° C., 20 hours, read-out: MIC
Experimental: as §1, §2

[22] = test system: Shigella flexneri ATCC 11836; assay: Antibacterial activity, MIC; type: cell-based; details: ATCC11836, agar two-fold dilution, 37° C., 20 hours
Experimental: as §1, §2

[23] = test system: Serratia marcescens ATCC 27117; assay: Antibacterial activity, MIC; type: cell-based; details: ATCC27117, ATCC 27117, agar two-fold dilution, 37° C., 20 hours, read-out: MIC
Experimental: as §1, §2

[24] = test system: Shigella sonnei ATCC 11060; assay: Antibacterial activity, MIC; type: cell-based; details: ATCC11060, ATCC 11060, agar two-fold dilution, 37° C., 20 hours, read-out: MIC
Experimental: as §1, §2

[25] = test system: Staphylococcus aureus ATCC 6538p; assay: Antibacterial activity, MIC; type: cell-based; details: ATCC6538P, ATCC 6538p, agar two-fold dilution, 37° C., 20 hours, read-out: MIC
Experimental: as §1, §2

[26] = In-vivo absorbency (plasma concentrations & pharmacokinetic parameters); design: species or system SD rat (male); details: plasma, SD male rat, iv 20 mg/kg; for half-life: rat, iv, 20 mg/kg
Excerpt: The blood samples from the femoral vein of the rats were taken every hour after administration, and analyzed by bio-assay(agar well method).
Tested animal: SD male Rat (220~340 g)

[27] = as above; design: species or system SD rat (male); details: plasma, SD male rat, iv 20 mg/kg, read-out: Plasma Conc.

Structure (SMILES)	MIC [1] [µg/mL]	MIC [2] [µg/mL]	MIC [3] [µg/mL]	MIC [4] [µg/mL]	MIC [5] [µg/mL]	MIC [6] [µg/mL]	MIC [7] [µg/mL]	MIC [8] [µg/mL]	MIC [11] [µg/mL]	MIC [12] [µg/mL]	MIC [13] [µg/mL]	MIC [14] [µg/mL]	MIC [15] [µg/mL]	MIC [16] [µg/mL]	MIC [17] [µg/mL]	MIC [18] [µg/mL]	MIC [19] [µg/mL]	MIC [20] [µg/mL]	MIC [22] [µg/mL]	MIC [23] [µg/mL]	other results
CCC[n+]1c(N)cc(N)nc1SCC1=C(C(=O)[O-])N2C(=O)C(NC(=O)/C(=N\OC(C)(C)C(=O)O)c3nsc(N)n3)C2SC1 (centres unmarked) [Compound I-28]	4 (≈ 6.13 µM)	0.5 (≈ 0.766 µM)	> 128	≤ 0.008	4 (≈ 6.13 µM)	4 (≈ 6.13 µM)	0.25 (≈ 0.383 µM)	128 (≈ 196 µM)	0.13 (≈ 0.199 µM)	2 (≈ 3.06 µM)	0.031 (≈ 0.0475 µM)	≤ 0.008	4 (≈ 6.13 µM)	0.13 (≈ 0.199 µM)	0.5 (≈ 0.766 µM)	2 (≈ 3.06 µM)	0.13 (≈ 0.199 µM)	8 (≈ 12.3 µM)	0.063 (≈ 0.0965 µM)	0.25 (≈ 0.383 µM)	MIC [9]: 0.13 µg/mL (≈ 0.199 µM); MIC [10]: 0.25 µg/mL (≈ 0.383 µM); MIC [21]: 0.13 µg/mL (≈ 0.199 µM); MIC [24]: 0.13 µg/mL (≈ 0.199 µM); MIC [25]: 8 µg/mL (≈ 12.3 µM)
CC(C)(O/N=C(\C(=O)NC1C(=O)N2C(C(=O)[O-])=C(CSc3nc(N)cc(N)[n+]3N)CSC12)c1nsc(N)n1)C(=O)O (centres unmarked) [Compound I-13]	1 (≈ 1.6 µM)	0.5 (≈ 0.799 µM)	> 128	0.016 (≈ 0.0256 µM)	2 (≈ 3.2 µM)	8 (≈ 12.8 µM)	0.13 (≈ 0.208 µM)	> 128	0.13 (≈ 0.208 µM)	2 (≈ 3.2 µM)	0.031 (≈ 0.0495 µM)	≤ 0.008	4 (≈ 6.39 µM)	0.13 (≈ 0.208 µM)	1 (≈ 1.6 µM)	1 (≈ 1.6 µM)	0.13 (≈ 0.208 µM)	4 (≈ 6.39 µM)	0.063 (≈ 0.101 µM)	0.25 (≈ 0.4 µM)	MIC [9]: 0.13 µg/mL (≈ 0.208 µM); MIC [10]: 1 µg/mL (≈ 1.6 µM); MIC [21]: 0.063 µg/mL (≈ 0.101 µM); MIC [25]: 16 µg/mL (≈ 25.6 µM)
C=CC[n+]1c(N)cc(N)nc1SCC1=C(C(=O)[O-])N2C(=O)C(NC(=O)/C(=N\OC(C)C(=O)O)c3csc(N)n3)C2SC1 (centres unmarked) [Compound I-6]	1 (≈ 1.57 µM)	0.25 (≈ 0.393 µM)	> 128	≤ 0.008	4 (≈ 6.29 µM)	2 (≈ 3.15 µM)	0.031 (≈ 0.0488 µM)	128 (≈ 201 µM)	0.063 (≈ 0.0991 µM)	2 (≈ 3.15 µM)	0.016 (≈ 0.0252 µM)	≤ 0.008	2 (≈ 3.15 µM)	0.063 (≈ 0.0991 µM)	0.25 (≈ 0.393 µM)	2 (≈ 3.15 µM)	0.031 (≈ 0.0488 µM)	4 (≈ 6.29 µM)	0.031 (≈ 0.0488 µM)	0.13 (≈ 0.204 µM)	MIC [10]: 1 µg/mL (≈ 1.57 µM); MIC [24]: 0.063 µg/mL (≈ 0.0991 µM); MIC [25]: 4 µg/mL (≈ 6.29 µM)
CC[n+]1c(SCC2=C(C(=O)[O-])N3C(=O)C(NC(=O)/C(=N\OC(C)(C)C(=O)O)c4csc(N)n4)C3SC2)nc(N)c(C)c1N (centres unmarked) [Compound I-32]	2 (≈ 3.07 µM)	0.25 (≈ 0.384 µM)	> 128	≤ 0.008	4 (≈ 6.14 µM)	2 (≈ 3.07 µM)	0.063 (≈ 0.0967 µM)	64 (≈ 98.2 µM)	0.13 (≈ 0.199 µM)	2 (≈ 3.07 µM)	0.016 (≈ 0.0245 µM)	≤ 0.008	1 (≈ 1.53 µM)	0.13 (≈ 0.199 µM)	0.25 (≈ 0.384 µM)	2 (≈ 3.07 µM)	0.031 (≈ 0.0476 µM)	8 (≈ 12.3 µM)	0.031 (≈ 0.0476 µM)	0.13 (≈ 0.199 µM)	concentration at 1 h ([26]; 60 min, read-out: Plasma Conc.): 7500 ng/mL; concentration at 2 h ([26]; 120 min, read-out: Plasma Conc.): 1800 ng/mL; AUC ([26]; two compartment model): 30500 ng·h/mL; half-life ([26]; two compartment model, read-out: T1/2 (α)): 3 min; half-life ([26]; two compartment model, read-out: T1/2 (β)): 29 min; concentration at 0.5 min ([27]; 0.5 min): 162000 ng/mL; concentration at 2.5 min ([27]; 2.5 min): 75000 ng/mL; concentration at 5 min ([27]; 5 min): 53000 ng/mL; concentration at 10 min ([27]; 10 min): 35000 ng/mL; concentration at 20 min ([27]; 20 min): 21000 ng/mL; concentration at 40 min ([27]; 40 min): 13000 ng/mL; MIC [9]: 0.13 µg/mL (≈ 0.199 µM); MIC [21]: 0.063 µg/mL (≈ 0.0967 µM); MIC [24]: 0.13 µg/mL (≈ 0.199 µM); MIC [25]: 4 µg/mL (≈ 6.14 µM)
